Results reported in ChEMBL document CHEMBL1201862, “PubChem BioAssay data set” (2004).
Calls of active or inactive are those of the source.

Columns and labels:
Protein Wnt-3a = Protein Wnt-3a (Mus musculus, UniProt P27467); assay: SAR analysis of small molecule antagonists of Gli-SUFU in a Wnt3a luminescent reporter assay.; type: functional
[1] = target: Potassium channel subfamily K member 3 (Rattus norvegicus, UniProt O54912); assay: SAR analysis for the identification of selective inhibitors of the two-pore domain potassium channel TASK1(KCNK3):Automated Electrophysiology.; type: functional
[2] = target: Potassium channel subfamily K member 3 (Homo sapiens, UniProt O14649); assay: inhibition of human KCNK3 channel flux – CHO cells, FluxOR thallium flux, SAR follow-up (AID 652212); type: functional
[3] = target: SWI/SNF-related matrix-associated actin-dependent regulator of chromatin subfamily A member 2 (Homo sapiens, UniProt P51531); assay: Luminescence-based cell-based high throughput dose response assay to identify activators of the function of SWI/SNF related, matrix associated, actin dependent regulator of chromatin, subfamily a, member 2 (SMARCA2, BRM).; type: functional
[4] = Counterscreen for activators of the function of SWI/SNF related, matrix associated, actin dependent regulator of chromatin, subfamily a, member 2 (SMARCA2, BRM): Luminescence-based cell-based high throughput dose response assay to identify non-selective compounds using the VP16 reporter assay.; type: functional
[5] = Luminescence-based cell-based high throughput dose response assay to identify activators of the DAF-12 from the parasite S. stercoralis (ssDAF-12).; type: functional
[6] = target: Potassium channel subfamily K member 9 (Homo sapiens, UniProt Q9NPC2); assay: KCNK9 flux blockade, concentration-response – cell-based, FluxOR thallium flux, selectivity assay for TASK1 inhibitor project, SAR follow-up (AID 652211); type: functional;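 also: potency is for inhibitors of the channel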
Paired box protein Pax-8 = Paired box protein Pax-8 (Homo sapiens, UniProt Q06710); assay: PAX8 transcriptional activity inhibition in RMG-I – RMG-I cells, luciferase, cherry-pick, dose response (AID 687027); type: functional, cell-based;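 also: luciferase reporter driven by Pax8 target thyroperoxidase promoter measured by SteadyGlo luminescence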
[7] = inhibitors acting on PAX2 in cells – cell-based, plate reader, dry powder samples, selectivity assay for PAX8 inhibitor project, dose response (AID 743048); type: functional;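 also: HEK293 cells carrying a WT1 promoter luciferase reporter driven by expressed Pax2; potency is for inhibition of Pax2 driven reporter signal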
[8] = PAX8-dependent cell viability loss – plate reader, dry powder, dose response (AID 743049); type: functional, cell-based
[9] = MITF Orthogonal Assay: SK-MEL-5 CTG Assay Measured in Cell-Based System Using Plate Reader - 2084-02_Inhibitor_Dose_DryPowder_Activity_Set7.; type: functional
[10] = MITF: Counter assay: A375 proliferation Measured in Cell-Based System Using Plate Reader - 2084-03_Inhibitor_Dose_DryPowder_Activity_Set8.; type: functional; details: A-375
[11] = inhibitors of TRPM1-promoter reporter in SK-MEL-5 – cell-based, luciferase, dry powder, set 8, MITF inhibitor project, dose response (AID 624430); type: functional
[12] = cytotoxicity in HEK293 background cells – cell-based, dry powder, set 2, counter-screen for EBV LMP1 inhibitor project, dose response (AID 624374); type: functional
Beta-lactamase [13] = target: Beta-lactamase (Salmonella choleraesuis (strain SC-B67), UniProt Q5J463); assay: Epi-absorbance-based counterscreen for selective VIM-2 inhibitors: dose response biochemical high throughput screening assay to identify inhibitors of TEM-1 serine-beta-lactamase.
Beta-lactamase [14] = target: T1, Beta-lactamase (Pseudomonas aeruginosa, UniProt Q79MP6); assay: inhibition of IMP-1 beta-lactamase activity – biochemical, epi-absorbance, selectivity assay for VIM-2 inhibitor project, dose response (AID 1920)
Beta Lactamase [15] = target: T2, Beta Lactamase (Pseudomonas aeruginosa, UniProt Q932Y6); assay: concentration-dependent VIM-2 enzyme inhibition – biochemical, epi-absorbance readout, selective inhibitors, dose response (AID 1919)
Beta-lactamase [16] = target: T1, Beta-lactamase; assay: […] counterscreen for selective VIM-2 inhibitors: dose response biochemical high throughput screening assay to identify inhibitors of IMP-1 metallo-beta-lactamase.
Beta Lactamase [17] = target: T2, Beta Lactamase; assay: VIM-2 CCF2 hydrolysis inhibition, assay artifact filter – biochemical, FRET readout, CCF2 substrate, artefact control for selective VIM-2 inhibitor project, dose response (AID 1926)
[18] = target: Endoplasmic reticulum aminopeptidase 1 (Homo sapiens, UniProt Q9NZ08); assay: inhibition of human ERAP1 enzyme activity – biochemical, cherry-pick, set 2, plate reader, dose response (AID 743314)
[19] = target: Mitogen-activated protein kinase 10 (Homo sapiens, UniProt P53779); assay: Dose response biochemical screening assay for inhibitors of c-Jun N-Terminal Kinase 3 (JNK3). [Related pubchem assays: 746 ]
[20] = target: T3, Heat shock factor protein 1 (Mus musculus, UniProt P38532); assay: enhancement of HSF1-driven luciferase signal – cell-based, NIH3T3, luminescence, dose retest, confirmation (AID 435004); type: functional;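 also: stress induced by proteasome inhibitor MG132 added 30 min after compound; luciferase reporter driven by HSF1 response element in NIH3T3 cells; actives raise luminescence as potentiators of the MG132 stress response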
T3 sequence (P38532 whole entry): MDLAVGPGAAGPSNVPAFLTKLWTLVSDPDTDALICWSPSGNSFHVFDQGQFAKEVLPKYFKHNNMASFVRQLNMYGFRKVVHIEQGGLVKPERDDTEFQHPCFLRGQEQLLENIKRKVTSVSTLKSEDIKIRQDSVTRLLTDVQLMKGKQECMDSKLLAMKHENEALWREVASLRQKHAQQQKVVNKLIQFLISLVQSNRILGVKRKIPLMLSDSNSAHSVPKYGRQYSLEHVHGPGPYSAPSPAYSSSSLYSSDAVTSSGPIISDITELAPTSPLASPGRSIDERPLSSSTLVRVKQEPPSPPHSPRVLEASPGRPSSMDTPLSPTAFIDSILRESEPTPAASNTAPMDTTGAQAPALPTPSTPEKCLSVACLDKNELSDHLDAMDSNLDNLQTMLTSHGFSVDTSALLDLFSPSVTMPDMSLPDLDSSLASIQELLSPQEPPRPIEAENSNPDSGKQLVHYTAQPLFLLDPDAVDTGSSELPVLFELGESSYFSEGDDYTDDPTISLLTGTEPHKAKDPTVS

Major prion protein = Major prion protein (Homo sapiens, UniProt P04156); type: functional, cell-based
[21] = target: T4, Beta-2 adrenergic receptor (Homo sapiens, UniProt P07550); assay: ADRB2 activation measured by internalization – cell-based, FAP fluorogen, flow cytometry, cherry pick 1, dose response (AID 588763); type: functional
[22] = target: T4, Beta-2 adrenergic receptor; assay: Dose response for HTS for Beta-2AR agonists via FAP method from Powderset3.; type: functional
[23] = Late stage assay provider results from the probe development effort to identify selective inhibitors of heat shock protein 90 (HSP90): Absorbance-based cell proliferation assay in SKBR3 cells.; type: functional; details: SK-BR-3
[24] = Late stage assay provider results from the probe development effort to identify selective inhibitors of heat shock protein 90 (HSP90): Absorbance-based cell proliferation assay in MCF7 cells.; type: functional
[25] = target: T5, Scavenger receptor class B member 1 (Mus musculus, UniProt Q61009); assay: mouse SR-BI DiI-HDL transfer blockers – ldlA[mSR-BI] CHO cells, fluorescence plate reader, dry powder, set 9, dose response (AID 623880); type: functional, cell-based
[26] = target: T5, Scavenger receptor class B member 1; assay: blockers of DiI-HDL lipid transfer via SR-BI – cell-based, ldlA[mSR-BI] CHO, DiI fluorescence, dry powder, set 10, dose response (AID 624029); type: functional
[27] = target: Kappa-type opioid receptor (Homo sapiens, UniProt P41145); assay: kappa opioid receptor antagonism potency – cell-based, fluorescence, dose response, late-stage follow-up (AID 652032); type: functional
[28] = target: Metabotropic glutamate receptor 3 (Rattus norvegicus, UniProt P31422); assay: inhibitors of rat mGlu3 Galpha15 signaling – TREx293 cells, calcium flux, mGlu3 NAM project, dose response (AID 651840); type: functional
[29] = tested on: Streptococcus sp. 'group A'; assay: Streptococcus pyogenes SK(-)GAS viability under kanamycin – luminescence, BacTiterGlo, confirmation, counter-screen for streptokinase expression inhibitor project, dose response (AID 1900); type: functional, organism-based
Streptokinase A = target: T6, Streptokinase A (Streptococcus pyogenes serotype M1, UniProt P10520); assay: viability-normalized secreted streptokinase activity reduction – plasminogen activation absorbance, OD405, dose response (AID 1914); type: functional, Streptococcus pyogenes M1 GAS;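 also: secreted streptokinase activity via plasminogen activation per viability signal from cell pellet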
T6 sequence (P10520 whole entry): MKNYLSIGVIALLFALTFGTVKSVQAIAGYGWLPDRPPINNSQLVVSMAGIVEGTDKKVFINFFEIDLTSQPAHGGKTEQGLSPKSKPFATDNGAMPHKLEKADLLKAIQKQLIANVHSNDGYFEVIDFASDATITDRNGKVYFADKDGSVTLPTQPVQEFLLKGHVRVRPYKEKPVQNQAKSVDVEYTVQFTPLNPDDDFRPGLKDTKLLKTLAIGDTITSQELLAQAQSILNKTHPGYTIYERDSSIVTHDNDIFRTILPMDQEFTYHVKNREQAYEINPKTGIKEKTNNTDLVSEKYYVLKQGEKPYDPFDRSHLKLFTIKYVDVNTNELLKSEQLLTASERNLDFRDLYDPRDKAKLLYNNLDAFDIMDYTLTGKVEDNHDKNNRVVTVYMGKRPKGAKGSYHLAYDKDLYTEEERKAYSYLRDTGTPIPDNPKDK

Streptococcus = assay: GAS UMAA2166 growth inhibition – luminescence, BacTiterGlo, counter-screen for streptokinase expression inhibitor project, dose response (AID 1915); type: functional, organism-based;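 also: potency for reduction of bacterial viability or growth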
H9c2 = assay: cells; type: functional, cell-based; details: Rattus norvegicus, H9c2, Myocardium
[30] = Counterscreen for […] of the human trace amine associated receptor 1 (TAAR1): Fluorescence-based cell-based high throughput dose response assay to identify nonselective Ga16 agonists.; type: functional
[31] = target: T7, Trace amine-associated receptor 1 (Homo sapiens, UniProt Q96RJ0); assay: Fluorescence-based cell-based high throughput dose response assay to identify antagonists of the human trace amine associated receptor 1 (TAAR1).; type: functional
T7 sequence (Q96RJ0 whole entry): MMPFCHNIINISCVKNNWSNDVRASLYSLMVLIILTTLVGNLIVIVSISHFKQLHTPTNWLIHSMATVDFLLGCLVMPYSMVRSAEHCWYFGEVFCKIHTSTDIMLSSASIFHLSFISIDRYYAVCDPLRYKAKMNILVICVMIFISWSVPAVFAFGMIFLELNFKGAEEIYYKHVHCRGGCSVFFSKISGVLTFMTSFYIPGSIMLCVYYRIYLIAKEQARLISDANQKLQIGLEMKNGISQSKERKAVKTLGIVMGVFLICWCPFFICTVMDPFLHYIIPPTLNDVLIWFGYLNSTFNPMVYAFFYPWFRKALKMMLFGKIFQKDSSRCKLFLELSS

[32] = Counterscreen for antagonists of the human trace amine associated receptor 1 (hTAAR1): Fluorescence-based cell-based high throughput dose response assay to identify nonselective Ga16 antagonists.; type: functional
[33] = target: T7, Trace amine-associated receptor 1; assay: Counterscreen for antagonists of the human trace amine associated receptor 1 (hTAAR1): Fluorescence-based cell-based high throughput dose response assay to identify TAAR1 Agonists.; type: functional

## COc1cc(OC)cc(C(=O)Nc2cc(Nc3cccc(Cl)c3)ncn2)c1
Protein Wnt-3a
  IC50: > 21.8 µM (inactive)

## CCOc1ccccc1NC(=O)c1cccc(NC(=O)c2ccc(Cl)cc2)c1
[1]
  IC50: 7.24 µM (active)
[2]
  IC50: 0.139 µM (active)

## N#Cc1c(NCCN)nc(-c2ccco2)c2c1CCCC2
[3]
  EC50: 10.8 µM (inactive)
[4]
  EC50: > 91.2 µM (inactive)

## COc1ccc(S(=O)(=O)Cc2ccc(C(=O)NCCCN3CCc4ccccc4C3)o2)cc1
[5]
  IC50: > 67.5 µM (inactive)

## CCOc1ccccc1NC(=O)c1cccc(NC(=O)c2ccccc2C)c1
[6]
  IC50: 4.29 µM (active)
[2]
  IC50: 0.14 µM (active)

## C[C@H](CO)N1C[C@H](C)[C@@H](CN(C)Cc2ccc(-c3ccccc3)cc2)Oc2ccc(NC(=O)C3CC3)cc2CC1=O
Paired box protein Pax-8
  AC50: 26.1 µM (active)
[7]
  AC50: > 70 µM (inactive)
[8]
  AC50: > 70 µM (inactive)

## CN(C1=CC(=O)c2ccccc2C1=O)c1ccccc1
[9]
  AC50: 2.32 µM (active)
[10]
  AC50: > 70 µM (inactive)
[11]
  AC50: 16.2 µM (active)

## COc1ccccc1C(=O)Nc1ccc2c(c1)C(=O)N(C)[C@@H]1CC[C@H](CC(=O)NCCc3ccncc3)O[C@H]1CO2
[12]
  AbsAC35: 153.61 µM

## CCc1nnc(S)n1/N=C/c1ccc(NC(C)=O)cc1
Beta-lactamase [13]
  IC50: > 59.6 µM (inactive)
Beta-lactamase [14]
  IC50: > 59.6 µM (inactive)
Beta Lactamase [15]
  IC50: 6.32 µM (active)
Beta-lactamase [16]
  IC50: > 59.6 µM (inactive)
Beta Lactamase [17]
  IC50: 2.08 µM (active)

## C[C@H](CO)N1C[C@H](C)[C@H](CN(C)Cc2ccc(C(=O)O)cc2)Oc2ccc(NC(=O)Nc3cccc4ccccc34)cc2CC1=O
[18]
  AC50: 21.1 µM (active)

## CCCc1nc(SCC(=O)Nc2cc(C)on2)c2ccccc2n1
[19]
  IC50: 83.5 µM (not active)
[20]
  EC50: 31.6 µM (active)
Major prion protein
  IC50: 1.01 µM (active)
cells
  IC50: > 138 µM (inactive)

## COc1ccc(OC)c(CCNC(=O)C2CCN(c3nnc(-n4cccc4)s3)CC2)c1
[21]
  EC50: 2.85 µM (active)
[22]
  EC50: 1.51 µM (active)

## CC(=O)c1ccc(NC(=O)c2coc(=O)c(Br)c2)cc1
[23]
  IC50: 8.4 µM (active)
[24]
  IC50: 10.7 µM (inactive)

## CC(C)CN(C(=O)COC(=O)C12CC3CC(CC(O)(C3)C1)C2)C1CCS(=O)(=O)C1 (stereo unspecified)
[25]
  AC50: 0.209 µM (active)
[26]
  AC50: 0.252 µM (active)

## COC(=O)c1cc(Br)cnc1N1CCC(Nc2ccccc2)CC1
[27]
  IC50: 17.5 µM (inactive)

## COc1ccc(C#Cc2ccc(C(=O)N3CC4CCC(O)C4C3)cc2)cc1 (stereo unspecified)
[28]
  IC50: 3.5 µM

## COc1cccc(-c2nn(-c3ccccc3)cc2C(=O)Nc2nccs2)c1
[29]
  EC50: 14.9 µM (active)
Streptokinase A
  EC50: 35.9 µM (active)
Streptococcus
  EC50: > 150 µM (not active)
H9c2
  IC50: 7.3 µM (active)
[30]
  EC50: > 29.9 µM (inactive)
[31]
  IC50: 4.72 µM (active)
[32]
  IC50: > 29.9 µM (inactive)
[33]
  EC50: > 29.9 µM (inactive)
